# Legend:
# [1] = test system: IL-18 release (NLRP3 inflammasome activation); assay: NLRP3 inflammasome activation assay, IL-18 release (ELISA) in human PBMC-derived macrophages; assay type: cell-based; conditions: 10 μM, 24 h pre-treatment, then LPS 3 h and nigericin 1 h
# Experimental: (§1) Macrophages were differentiated from human PBMCs isolated from buffy coats from healthy donors.
# (§2) Buffy coats were diluted 1:1 (v/v) with DPBS (Sigma-Aldrich) in falcon tubes. After reconstitution, suspension was carefully layered on Histopaque-1077 solution (Sigma-Aldrich) and centrifuged (760×g, RT, 20 min; Brakes Off). PBMCs were collected and washed with DPBS (3× at 350×g, RT, 8 min and 1× at 200×g, RT, 10 min; Brakes On). Subsequently, cells were resuspended in appropriate volume of RPMI 1640 medium (Gibco) supplemented with 10% of heat-inactivated FBS (Gibco) and 1% of Penicillin-Streptomycin Solution 100x (Biowest). Cell viability was measured using trypan blue solution (Sigma-Aldrich).
# (§3) 10×10^6 of PBMCs per well were seeded on 6-well plates in complete medium supplemented with 10 ng/ml of M-CSF growth factor (R&D Systems). Differentiation was conducted for a week with medium replacement every 2-3 days. Differentiation of PBMCs into mature macrophages was confirmed by microscopic evaluation and FACS surface staining for the following markers: CD11b, CD14, CD16 (BD Pharmingen). Differentiated macrophages were subjected on NLRP3 inflammasome activation assay.
# (§4) Human PBMC-derived macrophages were pre-treated for 24 h with exemplary compounds at the specific concentrations. Dilutions of tested compound were prepared in DMSO. Afterwards cells were primed with 1 μg/ml of LPS (Invivogen) for 3 h and NLRP3 inflammasomes were activated with 5 μM of nigericin solution (Invivogen) for 1 h. Supernatants were centrifuged and stored for ELISA assays and cell lysates were prepared for Western blotting analysis.
# (§5) IL-1β and IL-18 level was quantified using ELISA assays (R&D Systems) according to the manufacturer's protocol. 96-well plates were coated overnight with appropriate capture antibodies. Plates were blocked and incubated at RT for a minimum of 1 h. Samples or standards were added and incubated for 2 h in RT. Next, biotinylated anti-human IL-1β or IL-18 detection antibodies were added for 2 h in RT. Strepatividin-HRP solution was added for 20 min of incubation. Subsequently, substrate solution was added for 20 min. Between each step washing procedure was performed. The reaction was stopped, and optical density was determined using CLARIOstar Multimode Plate reader set to 450 nm with wavelength correction set to 570 nm. The analysis was performed with GraphPad Prism Software and Excel spreadsheet.
# (§6) To evaluate compound effect on inflammasome activation (measured as IL-1β and IL-18 release), human PBMC-derived macrophages were treated with individual compounds for 24 h prior to inflammasome activation. As shown in the Table 4 and in FIGS. 2A and 2B, after 24 h of pre-treatment with exemplary compounds, a dose-dependent decrease of cytokines level was noted.
# [2] = test system: IL-1β release (NLRP3 inflammasome activation); assay: NLRP3 inflammasome activation assay, IL-1β release (ELISA) in human PBMC-derived macrophages; assay type: cell-based; conditions: 10 μM, 24 h pre-treatment, then LPS 3 h and nigericin 1 h
# Experimental: as §1, §2, §3, §4, §5, §6
Structure (SMILES),Level of released IL-18 (% of DMSO control) [1],Level of released IL-1β (% of DMSO control) [2]
"O=C1CCC(N2Cc3cc(C4CCCCN4)ccc3C2=O)C(=O)N1 (stereo not shown) [Compound 2, 3-(1-oxo-5-(piperidin-2-yl)isoindolin-2-yl)piperidine-2,6-dione]",A (Levels of released cytokines ≤ 25%),B (Levels of released cytokines > 25% and ≤50%)
"Cc1c(C2CCCCN2)ccc2c1CN(C1CCC(=O)NC1=O)C2=O (stereo not shown) [Compound 19, 3-(4-methyl-1-oxo-5-(piperidin-2-yl)isoindolin-2-yl)piperidine-2,6-dione]",C (Levels of released cytokines > 50% and <75%),C (Levels of released cytokines > 50% and <75%)
"O=C1CCC(N2Cc3cc(-c4ccc(-c5ccccc5)cn4)ccc3C2=O)C(=O)N1 (stereo not shown) [4(2), 3-(1-oxo-5-(5-phenylpyridin-2-yl)isoindolin-2-yl)piperidine-2,6-dione]",B (Levels of released cytokines > 25% and ≤50%),D (Levels of released cytokines ≥ 75%)
"CC1c2cc(C3CCCCN3)ccc2C(=O)N1C1CCC(=O)NC1=O (stereo not shown) [Compound 25, 3-(3-methyl-1-oxo-5-(piperidin-2-yl)isoindolin-2-yl)piperidine-2,6-dione]",A (Levels of released cytokines ≤ 25%),A (Levels of released cytokines ≤ 25%)
"CC1c2cc(C3CCCCO3)ccc2C(=O)N1C1CCC(=O)NC1=O (stereo not shown) [Compound 64, 3-(3-methyl-1-oxo-5-(tetrahydro-2H-pyran-2-yl)isoindolin-2-yl)piperidine-2,6-dione]",A (Levels of released cytokines ≤ 25%),A (Levels of released cytokines ≤ 25%)
